Results on one compound are retold here after patent publication US20110262996A1, “METHODS AND MATERIALS FOR DEGRADING PYRETHROID” (DANISCO A/S, priority 2008, published 2011).

The experiment has as its target T1, organophosphate hydrolase (OPH) (Brevundimonas diminuta, UniProt P0A434).
T1 construct: purchased Genencor DEFENZ 130G, lot 102-6181-001
The experiment is described as follows: Time course of permethrin degradation by OPH, permethrin quantified by GCMS. Format: biochemical. The note with it: for Amount of Permethrin measured: 5 μL of 0.31 mg/mL OPH added to 995 μL of 2.5 mg/mL permethrin, pH 8.5, 22° C., ppm at the detector. Here is the method:
OPH was assayed for the ability to degrade permethrin. Its efficacy has been measured by performing time course experiments wherein a sample of OPH is added to a sample of permethrin. Degraded permethrin is then separated from the reaction mixture and detected on a GCMS.
Experimental Methods and Equipment. A Shimadzu GC2010 Gas Chromatograph with AOC 20i Auto Injector and a Shimadzu GCMS QP2010S Quadrapole Mass Spectrometer were used to analyze the experimental samples. A Supelco Equity-5 column was used (length: 30.0 m, thickness: 0.25 μm, diameter: 0.25 mm) for the assays. However, analogous columns may be substituted.
The equipment was run with the following parameters: • column oven temperature: 120° C. • injector temperature: 250° C. • injection: splitless • pre-run rinses: 3 • post-run rinses: 3 • sample rinses: 2 • linear velocity: 30 cm/sec • column flow: 0.64 mL/min • split ratio: 10 • detector voltage: relative to tuning • ion source temperature: 250° C. • interface temperature: 270° C. • solvent cut time: 3 min • run time: 35 min • temperature ramp: 5° C./min • scan speed: 833
Experimental assays were run using recombinant OPH (DEFENZ™ 130G, lot 102-6181-001; Genencor). Reagents included ammonium carbonate (Sigma 207861, lot 12919JC), cobalt chloride (JT Baker 1670-04, lot Y41640), hydrochloric acid (JT Baker 5620-02, lot A23506), propanol (Sigma 154970, lot 04242AD), and permethrin (Sigma-Pestanal 45614, lot 7079×).
Preparation of Enzyme Samples. OPH enzyme granules (2% protein) were dissolved in 33 mM ammonium carbonate buffer, pH 8.5, at 22° C. The reaction mixture was agitated for 30 minutes, first vortexed, then slowly agitated on a temperature-controlled platform shaker. A 1.5 mL sample of the enzyme solution was taken and centrifuged for 1 minute at 13,000 rpm. An aliquot of the resulting supernatant is used in the pesticide degradation reaction.
Preparation of Permethrin Samples. A stock permethrin sample at a concentration of 100 mg/mL was made by dissolving an appropriate amount of permethrin standard into propanol. The stock sample was stored under refrigeration. For generating standard curves on the GCMS, permethrin standards were made by diluting an aliquot of the stock permethrin sample into propanol to achieve a concentration of 1 mg/mL and 10 mg/mL. Permethrin to be used in the enzyme reaction was prepared by diluting an aliquot of the stock solution into 33 mM ammonium carbonate buffer at the desired pH for a particular reaction, and at room temperature.
Enzyme Reactions. In a 1.5 mL tube, 250 μL of a 10 mg/mL permethrin solution in propanol was added to 0.75 mL of 33 mM ammonium carbonate buffer, pH 8.5. A 995 μL aliquot of the permethrin solution was placed in a 1.5 mL gas chromatography (GC) sample vial, to which was added a 5 μL aliquot of a 0.31 mg/mL OPH enzyme solution. To inactivate the reaction at any specific time point, a 10 μL aliquot of the reaction solution was removed and added to 990 μL of propanol in a GC sample vial. These samples were then loaded on the GCMS autosampler.
Results and Discussion. This study was conducted to determine whether OPH degrades permethrin. To quantitatively measure amounts of permethrin, the Shimadzu GC with Quadrapole MS detector was used, as in previous pesticide experiments. A standard curve was generated using 1 mg/mL and 10 mg/mL stock solutions in propanol. Regression of the standard curve yielded R2 values of 0.9997 above 50 ppm and of 0.998 below 50 ppm.
Preliminary experiments were conducted to ascertain optimum concentrations for the enzyme reactions. […] Samples were taken at time points of 0, 1, 5, 15, and 30 minutes by removing 10 μL of the reaction mixture and adding it to 990 μL of propanol. […]

In the case of `CC1(C)C(C=C(Cl)Cl)C1C(=O)OCc1cccc(Oc2ccccc2)c1` (stereo not shown) [permethrin], where the note is “after 30 minutes”, the “degraded amount of permethrin at the detector” value amounted to 12 ppm. Also, the “Amount of Permethrin measured” value was 31.47 ppm (time 0 min); 25.8 ppm (time 1 min); 25.88 ppm (time 5 min); 24.64 ppm (time 15 min); 19.27 ppm (time 30 min). Besides, for the setting “within 1 minute of the start of the reaction”, the “initial, rapid degradation of permethrin at the detector” value was “approximately 6 ppm”.
